Data published in patent publication US20110081662A1, “SCREENING METHODS FOR BONE MORPHOGENETIC MIMETICS” (THRASOS THERAPEUTICS, INC., priority 2000, published 2011).
Bridges are numbered along the chain shown (N, C = ends). Where no end group is shown, it is not given here.

Tests used:
[1] = target: T1, daf-4 ECD (Caenorhabditis elegans, UniProt P50488); assay: BMP binding to purified daf-4 ECD (ligand blot, Scatchard analysis); set-up: species or system C. elegans
T1 construct: 1 includes additional portions on the N and C terminus; made in house; host or cells: transfected DHFR(-) CHO cell line PJ511.9.8, purified from conditioned medium
T1 sequence (P50488 with tags, fused parts or gaps): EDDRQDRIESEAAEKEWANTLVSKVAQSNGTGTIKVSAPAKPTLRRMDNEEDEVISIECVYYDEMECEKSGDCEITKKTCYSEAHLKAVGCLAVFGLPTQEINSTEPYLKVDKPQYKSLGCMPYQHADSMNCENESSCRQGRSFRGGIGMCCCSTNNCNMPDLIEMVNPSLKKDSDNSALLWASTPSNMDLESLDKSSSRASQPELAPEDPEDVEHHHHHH
Description: A novel ligand-blot technique was developed to evaluate the binding of BMP-7 to the purified daf-4 ECD.

[2] = system: BMP-7 receptor-enriched plasma membrane fraction of ROS cells; assay: Radio-ligand receptor assay (displacement of 125I-labeled BMP-7); type: binding, rat
Description: Radio-ligand receptor Assay: The receptor-binding activities of various BMP ligands (New York Public Health Labs, Albany, N.Y.) were determined by an equilibrium displacement binding isotherm assay using BMP-7 receptor-enriched plasma membrane fraction of ROS cells (ATCC 17-2.8) and ^125I-labeled BMP-7 (NEN, Billerica, Mass.) as ligand. Purified BMP-7 was radio-iodinated BMP-7 to a specific activity of 70-78 uCi/ug by a modified procedure of lactoperoxidase method (Schneyer, A. L., et al., Endocrinology 119, 1446-1453 (1986)). The percent bindability of radioiodinated BMP-7 to excess receptor is 30-37%. Receptors from ROS cells are obtained by a procedure previously described (Dattatreyamurty, B., et al., (1986) J. Biol. Chem. 261.). […] In a typical assay, fixed amounts of ^125I-labeled sol. BMP-7 (−80.000 cpm) were incubated with a fixed amount of receptor-enriched plasma membrane fraction in the presence (5 ug. for non-specific binding) or absence of excess unlabeled BMP-7 (for total binding). Displacement curves were generated with increasing concentrations of BMP-7 standard preparation (5-2000 ng). The assay incubations were carried out in a reaction volume of 300 μl with shaking for 22 hrs. at 4° C. Bound and unbound ^125I-labeled BMP-7 were separated by centrifugation (30,500×g. 30 minutes). The supernatants were aspirated and pellets washed before counting in a gamma counter (Packard Instr. Downers Grove, Ill.). The concentration of test agent required to give 50% inhibition of total specific binding of ^125I-labeled BMP-7 ^(ED50^) was calculated from competitive data.

[3] = system: BMP-7 induced and basal alkaline phosphatase activity in ROS cells (rat Osteosarcoma 17/2.8); assay: ROS cell based alkaline phosphatase assay; settings: for IC50: peptide together with BMP-7 (1.33 nM), ROS cells, 2 days, read-out: peptide concentration giving 50% inhibition of cellular responsiveness to BMP-7
Description: ROS Cell Based Alkaline Phosphatase Assays: BMP-7 and test agents that bind BMP-7 receptors were analyzed by in vitro bioassay. This assay defines the role of these test agents at the receptor-binding site. It is believed that some of the test agents can effectively interact with receptors and inhibit BMP-7 induced target cell responsiveness, thereby acting as functional antagonists. Alternatively, these agents may mimic BMP-7 functions inducing alkaline phosphatase activity in ROS cells, thus acting as functional agonists. An assay procedure as described by Maliakal, J. C., et al., Growth Factors 11, 227-234, (1994) determined the biological activities of BMP-7 peptides. In a typical experiment, rat Osteosarcoma (17/2.8) cells were plated in 96 well plates (3.0×10^4 cells/well) and incubated overnight at 37 C in 5-6% CO2 incubator. Next day, the plates were examined to make sure that cells are healthy & confluent. Cells were treated with increasing concentrations of BMP-7 standard (1-10,000 ng/ml) or test agents (0.02-200 μM) or appropriate concentrations of test agent alone or with BMP-7 standard prepared in medium containing 1% FBS and incubated for 2 days at 37 C in 5-6% CO2 incubator. The cellular content of alkaline phosphatase activity was determined by the method of Reddi, A. H. & Huggins, C. B. Proc. Natl. Acad. Sci. USA 69, 1601-1605 (1972). Enzyme estimations were routinely carried out in 96 well plates. Following removal of culture medium, cells were washed with pre-warmed PBS (150 μl) and further incubated in 100 μl of pre-warmed 1% Triton X-100 for 30 minutes at 37 C. Plates were centrifuged for 10 minutes at full speed, and recovered samples (each 15 μl) were assayed for enzyme activity by adding 90 μl p-nitrophenyl phosphate (Sigma, St. Louis, Mo.) as a substrate in 0.05 M glycine-NaOH buffer, pH 9.3 and incubating for 20 minutes at 37 C. The reaction was stopped by adding 75 ul of 0.2 N NaOH/well and absorbance at 405/490 nm is measured on a Dynatech MR 700 plate reader (Dynatech Laboratories, U.K.). Results are expressed as concentration of peptide/small molecule inhibitor (with antagonist activity) required to give 50% inhibition of maximum response to BMP-7 standard. The activities of test agents that stimulate cell responsiveness (with agonist activity), are expressed relative to BMP-7 standard.

[4] = target: T2, ECD of daf-4 receptor (Caenorhabditis elegans, UniProt P50488); assay: Type II receptor-based HTS rapid solid-phase assay; type: binding, C. elegans; settings: ECD immobilized on PVDF membrane, 18 h, room temperature
T2 construct: 1 includes additional portions on the N and C terminus; made in house; host or cells: transfected DHFR(-) CHO cell line PJ511.9.8, purified from conditioned medium
T2 sequence (P50488 with tags, fused parts or gaps): T1 sequence (P50488 with tags, fused parts or gaps)
Excerpt: Preparation of type II Receptor ECD: Highly purified extracellular domain (ECD) of the type II receptor daf-4 was used in this assay. The ECD of the daf-4 receptor was cloned and vectors (pCMV5 expression vectors, daf-4 sequence including the mammalian consensus start site and the hexa-histidine sequence tag) are constructed for the expression of this molecule in mammalian cells. In this construct, the ECD has been linked to a hexa-Histadine sequence tag for subsequent purification and detection. The transfected DHFR(−) CHO cell line PJ511.9.8 has been used for the daf-4 expression as outlined below. This cloning method can also be utilized with other bone morphogenetic proteins.
Purification of daf-4 ECD: A purification protocol to process large volumes of conditioned media (3.5 L/week) was developed. The procedure involves initial isolation of daf-4 ECD by using Talon (Pharmacia Tech.) Immobilized metal affinity column. As daf-4 ECD protein is linked to a hexa-His sequence, the protein is bound to the metal affinity column and is subsequently eluted by imidazoic ([…]) containing buffer. […] The purified preparation was analyzed by reversed phase HPLC. […]
HTS assay procedure: BMP-7 binding activity was determined by a rapid solid-phase assay using ^125I-labeled BMP-7 as ligand and highly purified ECD of daf-4 as type II receptor. […]

[5] = lower peptide concentrations (0.6-60 μM)

Substance | effect on basal cell responsiveness (basal alkaline phosphatase activity) ([3]; peptide alone) | behaviour of peptide on BMP-7 induced cell responsiveness ([3]; peptide together with BMP-7) | IC50 [3] [µM] | further results
BMP-4: bone morphogenetic protein | – | – | – | binding to extracellular domain of daf-4 [1]: readily binds
CCFINPETVCC, SEQ I.D NO. 6; cyclized (disulfide (positions not given here); also: cyclized (mode not given here); listed as Homo sapiens) [Peptide H-2C] | inhibiting | antagonist | 5 | effect on binding of 125I-labeled BMP-7 to the receptor ([2]; peptide at 8 μM): potentiated
CELYVSFRDLGWQDWIIAPEGYAAYC, SEQ I.D NO. 3; BMP-7 finger 1 peptide with cyclized ends (disulfide 1-26 (inferred); listed as Homo sapiens) [Peptide F1-1] | – | antagonist | 20 | peptide concentration effective to inhibit basal cellular responsiveness ([3]; peptide alone): 52 to 260 µM
CFRDLGWQDWIIAPC, SEQ I.D NO. 4; 15 residue peptide cyclized at the ends (disulfide 1-15 (inferred); listed as Homo sapiens) [Peptide F1-2] | weakly inhibiting | antagonist | 10 | activity in radioligand receptor assay [2]: relatively weak activity; concentration required to inhibit the binding of 125I-labeled BMP-7 to the receptor ([2]; ROS cell plasma membranes): 179 µM
CLNAISVLYFDDSSNVILKKYRNMVVRC, SEQ ID NO. 10; cyclized (disulfide 1-28 (inferred); listed as Homo sapiens) [Peptide F2-1] | effectively inhibited | effectively inhibited | 8 | –
CYFDDSSNVIC SEQ I.D NO. 7; 9 residues, ends cyclized (disulfide 1-11 (inferred); listed as Homo sapiens) [Peptide F2-2] | – | – | – | effect on responsiveness to BMP-7 at higher concentrations ([3]; higher peptide concentrations (above 0.6-60 μM)): inhibited; behaviour of peptide on BMP-7 induced cell responsiveness at lower concentrations [3, 5]: weak agonist; potentiation of BMP-7 induced cell responsiveness [3, 5]: 20%
CYFDDSSNVICKKYRS, SEQ I.D NO. 9; 11 residue loop with 5 residue C-terminal extension (disulfide 1-11; listed as Homo sapiens) [Peptide F2-3] | no significant effect | agonistic | – | percent increase in BMP-7 response (relative to the absence of peptide) ([3]; peptide 0.01 μM, sub-maximal BMP-7, P<0.001): 53%; percent increase in BMP-7 response (relative to the absence of peptide) ([3]; peptide 0.1 μM, sub-maximal BMP-7, P=0.007): 54%; percent increase in BMP-7 response (relative to the absence of peptide) ([3]; peptide 1 μM, sub-maximal BMP-7, P=0.01): 48%; inhibition of 125I-labeled BMP-7 binding to the ECD of daf-4 receptor [4]: 75%
F2-2c: CIVNSSDDFYC SEQ I.D NO. 8; control peptide, residues of F2-2 in reverse order (disulfide 1-11 (inferred); listed as Homo sapiens) [Peptide F2-2c, reference compound] | no effect | no effect | – | activity in radioligand receptor assay [2]: inactive
H-1: CAFPLNSYMNATNHAIVQTLVHFINPETVPKC SEQ ID NO 5; heel peptide, cyclized (disulfide 1-32 (inferred); listed as Homo sapiens) [Peptide H-1] | effective only at very high concentrations | weak antagonist | – | concentrations required to inhibit the BMP-7 induced cell response ([3]; peptide together with BMP-7): 44 to 220 µM
